Here are results for two molecules from US12453728B1, “Compositions comprising inhibitors of microsomal triglyceride transfer protein and Apo-B secretion” (Redux Therapeutics, LLC, priority 2024, dated 2025).

The nature of data set [1]: Lipid profile and glucose. The settings on record: for glucose: olanzapine study, healthy volunteers.
Data set [2] is described as follows: Postprandial triglycerides after a standardized breakfast in subjects treated with olanzapine. Conditions: normal healthy volunteers; 10 mg olanzapine alone, or 10 mg olanzapine + 200 mg Compound 3 BID (days 8-15).
Data set [3] can be described thus: Effect of Compound 3 on steady-state pharmacokinetics of olanzapine. Conditions: 200 mg Compound 3 BID with 10 mg olanzapine; days 8 and 15. The class given is in vivo, human. The procedure:
Postprandial triglycerides and lipid profiles were assessed on study days 1, 8, and 15, olanzapine pharmacokinetics was assessed on study days 8 and 15, and safety and tolerability were assessed throughout. On each of these study days, subjects consumed a standardized breakfast (˜900 kcal; 55% of kcal from fat) in 15 minutes. Blood samples were drawn prior to meal consumption and 1, 2, 3, 4, 6 and 8 hours after initiation of meal.

Data set [4] can be described thus: Body weight change during olanzapine treatment.
For data set [5] the following is noted: in vivo.

In the case of `COc1cccc(C(=O)Nc2ccc3c(c2)CCN(C(=O)Oc2ccccc2)C3)c1-c1ccc(C(F)(F)F)cc1` [Compound 3], in data set [1] (Day 9-15, olanzapine alone vs olanzapine + Compound 3), the LDL-C result is listed as “blunted”. The glucose entry in data set [1] is listed as “No changes in glucose were observed”. Moreover, the postprandial triglycerides entry in data set [2] is “greatly reduced postprandial triglycerides”. Further, the “impact on the pharmacokinetic profile of olanzapine” value in data set [3] is on record as “did not significantly impact”. The “blunting of body weight gain from olanzapine” value in data set [4] (second week of the study, 10 mg olanzapine + 200 mg Compound 3 BID) is reported as “significant blunting in body weight gain”.

As to `Cc1cc2c(s1)Nc1ccccc1N=C2N1CCN(C)CC1` [olanzapine, reference compound], the glucose result in data set [1] is on record as “No changes in glucose were observed”. Moreover, the “SAEs, fatal events, discontinuations due to adverse events” value in data set [5] is given as “No SAEs, fatal events, or discontinuations due to adverse events”. For the same molecule, the “weight gain during the first week of treatment” value in data set [4] (normal healthy volunteers, 10 mg olanzapine alone, first week) is reported as “significant weight gain”.
